Reference: ChEMBL document CHEMBL3137667, “[Drug-induced liver injury; fourteenth updated edition of the bibliographic database of liver injuries and related drugs]” (Gastroenterol Clin Biol, 2004)

Legend:
[1] = human
[2] = human; remark: listed apart in the source
[3] = Times to onset, minimal and maximal, observed in the indexed observations. [column 'DELAI' in source]; conditions: human
[4] = human; remark: listed apart in the source
[5] = Proposed mechanism(s) of liver damage. [column 'MEC' in source]; conditions: human
[6] = human; remark: listed apart in the source
[7] = human; remark: listed apart in the source
[8] = human; remark: listed apart in the source
[9] = human; remark: listed apart in the source
[10] = human; remark: listed apart in the source
[11] = Highest frequency of moderate liver toxicity observed during clinical trials, expressed as a percentage. [column '% BIOL' in source]; conditions: human
[12] = human, serum
[13] = Highest frequency of acute liver toxicity observed during clinical trials, expressed as a percentage. [column '% AIGUE' in source]; conditions: human
[14] = human, serum, 4383 h
[15] = human; remark: listed apart in the source
[16] = human, serum; remark: listed apart in the source
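For Hepatotoxicity (association with vascular disease) in this document: count of indexed literature references reporting vascular liver injury in humans, e.g. peliosis hepatitis, hepatic veno-occlusive disease or Budd-Chiari syndrome.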
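For Hepatotoxicity (benign tumour) in this document: value is a count of indexed literature references citing a benign tumour confirmed by histopathology.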
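For Hepatotoxicity (choleostasis) in this document: human cholestatic liver injury, shown by histopathology or by peak ALT or AST elevation over alkaline phosphatase ratio below 2, value counts indexed literature reports.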
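For Hepatotoxicity (chronic liver disease) in this document: chronic liver injury confirmed by histopathology or persistently raised serum aminotransferase activity beyond 6 months, value given as the count of indexed literature references.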
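For Hepatotoxicity (cirrhosis) in this document: value is a count of indexed literature references reporting cirrhosis confirmed by histopathology.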
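For Hepatotoxicity (cytolytic) in this document: human cytolytic liver injury, shown by histopathology or by a ratio above 5 of peak ALT or AST elevation to alkaline phosphatase elevation, value counts indexed references.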
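For Hepatotoxicity (granulomatous hepatitis) in this document: value is a count of indexed literature references reporting granulomatous liver disease confirmed by histopathology.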
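For Hepatotoxicity (malignant tumour) in this document: malignant tumour confirmed by histopathology, value gives the count of indexed literature references reporting it.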
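For Hepatotoxicity (severe hepatitis) in this document: human clinical data: severe hepatitis, meaning potentially life-threatening liver failure or clinically observed cases, the value counts how many indexed literature references report it.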
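For Hepatotoxicity (steatosis) in this document: steatosis confirmed by histopathology, value is the count of indexed references.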

With `CC1=C(C(=O)O)N2C(=O)[C@@H](NC(=O)[C@H](N)c3ccccc3)[C@H]2SC1` [CEPHALEXIN ANHYDROUS] the “Hepatotoxicity (granulomatous hepatitis)” value [1] was 1, the “Hepatotoxicity (severe hepatitis)” value [2] was 2 and the “Hepatotoxicity (time to onset)” value [3] was 1 week - 9 days. For the same molecule, the “Hepatotoxicity (malignant tumour)” value [4] was 0, the “Hepatotoxicity (mechanism)” value [5] was “Allergic” and the “Hepatotoxicity (association with vascular disease)” value [6] was 0. For the same molecule, the “Hepatotoxicity (cirrhosis)” value [7] was 0, the “Hepatotoxicity (benign tumour)” value [8] was 0 and the “Hepatotoxicity (choleostasis)” value [9] was 4. For the same molecule, the “Hepatotoxicity (steatosis)” value [10] was 0, the “Hepatotoxicity (moderate)” value [11] was 4.8% and the “Hepatotoxicity (moderate)” value [12] was 4. For the same molecule, the “Hepatotoxicity (acute)” value [13] was 0%, the “Hepatotoxicity (chronic liver disease)” value [14] was 0 and the “Hepatotoxicity (cytolytic)” value [15] was 3. For the same molecule, the “Hepatotoxicity (acute)” value [16] was 6.
With `O=C1CN=C(c2ccccc2Cl)c2cc([N+](=O)[O-])ccc2N1` [CLONAZEPAM] the “Hepatotoxicity (granulomatous hepatitis)” value [1] was 0, the “Hepatotoxicity (severe hepatitis)” value ([2]; Liver) was 1 and the “Hepatotoxicity (time to onset)” value [3] was 3 weeks - 4 months. For the same molecule, the “Hepatotoxicity (malignant tumour)” value [4] was 0, the “Hepatotoxicity (mechanism)” value [5] was “Toxic Metabolite” and the “Hepatotoxicity (association with vascular disease)” value [6] was 0. For the same molecule, the “Hepatotoxicity (cirrhosis)” value [7] was 0, the “Hepatotoxicity (benign tumour)” value [8] was 0 and the “Hepatotoxicity (choleostasis)” value [9] was 0. For the same molecule, the “Hepatotoxicity (steatosis)” value [10] was 0, the “Hepatotoxicity (moderate)” value ([11]; Liver) was 0% and the “Hepatotoxicity (moderate)” value [12] was 0. The “Hepatotoxicity (acute)” value ([13]; Liver) was 0%, the “Hepatotoxicity (chronic liver disease)” value [14] was 0 and the “Hepatotoxicity (cytolytic)” value [15] was 2. The “Hepatotoxicity (acute)” value [16] was 2.
For `CN(C)/N=N/c1[nH]cnc1C(N)=O` [DACARBAZINE], the “Hepatotoxicity (granulomatous hepatitis)” value [1] was 0, the “Hepatotoxicity (severe hepatitis)” value [2] was 6 and the “Hepatotoxicity (time to onset)” value [3] was 1 cure - 4 cures. The “Hepatotoxicity (malignant tumour)” value [4] was 0, the “Hepatotoxicity (mechanism)” value [5] was “Allergic, Toxic” and the “Hepatotoxicity (association with vascular disease)” value [6] was 24. The “Hepatotoxicity (cirrhosis)” value [7] was 0, the “Hepatotoxicity (benign tumour)” value [8] was 0 and the “Hepatotoxicity (choleostasis)” value [9] was 2. For the same molecule, the “Hepatotoxicity (steatosis)” value [10] was 0, the “Hepatotoxicity (moderate)” value [11] was 50% and the “Hepatotoxicity (moderate)” value [12] was 12. The “Hepatotoxicity (acute)” value [13] was 0%, the “Hepatotoxicity (chronic liver disease)” value [14] was 0 and the “Hepatotoxicity (cytolytic)” value [15] was 4. The “Hepatotoxicity (acute)” value [16] was 5.
In the case of `CN(C)[C@@H]1C(O)=C(C(N)=O)C(=O)[C@@]2(O)C(O)=C3C(=O)c4c(O)ccc(Cl)c4[C@@H](O)[C@H]3C[C@@H]12` [DEMECLOCYCLINE], the “Hepatotoxicity (granulomatous hepatitis)” value [1] was 0, the “Hepatotoxicity (severe hepatitis)” value [2] was 2 and the “Hepatotoxicity (time to onset)” value [3] was 2 days - 2 months. For the same molecule, the “Hepatotoxicity (malignant tumour)” value [4] was 0, the “Hepatotoxicity (mechanism)” value [5] was “Dose-dependant” and the “Hepatotoxicity (association with vascular disease)” value [6] was 0. For the same molecule, the “Hepatotoxicity (cirrhosis)” value [7] was 0, the “Hepatotoxicity (benign tumour)” value [8] was 0 and the “Hepatotoxicity (choleostasis)” value [9] was 0. The “Hepatotoxicity (steatosis)” value [10] was 1, the “Hepatotoxicity (moderate)” value [11] was 0% and the “Hepatotoxicity (moderate)” value [12] was 0. For the same molecule, the “Hepatotoxicity (acute)” value [13] was 0%, the “Hepatotoxicity (chronic liver disease)” value [14] was 0 and the “Hepatotoxicity (cytolytic)” value [15] was 1. For the same molecule, the “Hepatotoxicity (acute)” value [16] was 1.
In the case of `CN[C@@H]1[C@H](O[C@H]2[C@H](O[C@H]3[C@H](O)[C@@H](O)[C@H](NC(=N)N)[C@@H](O)[C@@H]3NC(=N)N)O[C@@H](C)[C@]2(O)CO)O[C@@H](CO)[C@H](O)[C@H]1O` [DIHYDROSTREPTOMYCIN], the “Hepatotoxicity (granulomatous hepatitis)” value [1] was 0, the “Hepatotoxicity (severe hepatitis)” value [2] was 0 and the “Hepatotoxicity (time to onset)” value [3] was under 1 days. The “Hepatotoxicity (malignant tumour)” value [4] was 0, the “Hepatotoxicity (mechanism)” value [5] was “Allergic” and the “Hepatotoxicity (association with vascular disease)” value [6] was 0. The “Hepatotoxicity (cirrhosis)” value [7] was 0, the “Hepatotoxicity (benign tumour)” value [8] was 0 and the “Hepatotoxicity (choleostasis)” value [9] was 0. The “Hepatotoxicity (steatosis)” value [10] was 0, the “Hepatotoxicity (moderate)” value [11] was 0% and the “Hepatotoxicity (moderate)” value [12] was 0. The “Hepatotoxicity (acute)” value [13] was 0%, the “Hepatotoxicity (chronic liver disease)” value [14] was 0 and the “Hepatotoxicity (cytolytic)” value [15] was 1. For the same molecule, the “Hepatotoxicity (acute)” value [16] was 1.
In the case of `C[C@H](CCc1ccccc1)NC[C@H](O)c1ccc(O)c(C(N)=O)c1` [DILEVALOL], the “Hepatotoxicity (granulomatous hepatitis)” value [1] was 0, the “Hepatotoxicity (severe hepatitis)” value [2] was 1 and the “Hepatotoxicity (time to onset)” value [3] was 2 weeks. The “Hepatotoxicity (malignant tumour)” value [4] was 0, the “Hepatotoxicity (mechanism)” value [5] was “Allergic” and the “Hepatotoxicity (association with vascular disease)” value [6] was 0. For the same molecule, the “Hepatotoxicity (cirrhosis)” value [7] was 0, the “Hepatotoxicity (benign tumour)” value [8] was 0 and the “Hepatotoxicity (choleostasis)” value [9] was 0. For the same molecule, the “Hepatotoxicity (steatosis)” value [10] was 0, the “Hepatotoxicity (moderate)” value [11] was 2% and the “Hepatotoxicity (moderate)” value [12] was 1. The “Hepatotoxicity (acute)” value [13] was 0%, the “Hepatotoxicity (chronic liver disease)” value [14] was 0 and the “Hepatotoxicity (cytolytic)” value [15] was 1. The “Hepatotoxicity (acute)” value [16] was 1.
In the case of `Cc1c(N(C)CS(=O)(=O)[O-])c(=O)n(-c2ccccc2)n1C.[Na+]` [DIPYRONE SODIUM], the “Hepatotoxicity (granulomatous hepatitis)” value [1] was 0, the “Hepatotoxicity (severe hepatitis)” value [2] was 0 and the “Hepatotoxicity (time to onset)” value [3] was 2 hours - 18 days. For the same molecule, the “Hepatotoxicity (malignant tumour)” value [4] was 0, the “Hepatotoxicity (mechanism)” value [5] was “Allergic” and the “Hepatotoxicity (association with vascular disease)” value [6] was 0. For the same molecule, the “Hepatotoxicity (cirrhosis)” value [7] was 0, the “Hepatotoxicity (benign tumour)” value [8] was 0 and the “Hepatotoxicity (choleostasis)” value [9] was 0. The “Hepatotoxicity (steatosis)” value [10] was 0, the “Hepatotoxicity (moderate)” value [11] was 0% and the “Hepatotoxicity (moderate)” value [12] was 1. For the same molecule, the “Hepatotoxicity (acute)” value [13] was 0%, the “Hepatotoxicity (chronic liver disease)” value [14] was 0 and the “Hepatotoxicity (cytolytic)” value [15] was 0. The “Hepatotoxicity (acute)” value [16] was 3.
In the case of `O=C1Nc2ccc(Cl)cc2[C@@](C#CC2CC2)(C(F)(F)F)O1` [EFAVIRENZ], the “Hepatotoxicity (granulomatous hepatitis)” value [1] was 0, the “Hepatotoxicity (severe hepatitis)” value [2] was 4 and the “Hepatotoxicity (time to onset)” value [3] was 10 days - 4 weeks. The “Hepatotoxicity (malignant tumour)” value [4] was 0, the “Hepatotoxicity (mechanism)” value [5] was “Allergic” and the “Hepatotoxicity (association with vascular disease)” value [6] was 0. For the same molecule, the “Hepatotoxicity (cirrhosis)” value [7] was 0, the “Hepatotoxicity (benign tumour)” value [8] was 0 and the “Hepatotoxicity (choleostasis)” value [9] was 2. The “Hepatotoxicity (steatosis)” value [10] was 0, the “Hepatotoxicity (moderate)” value [11] was 18.8% and the “Hepatotoxicity (moderate)” value [12] was 2. The “Hepatotoxicity (acute)” value [13] was 10.9%, the “Hepatotoxicity (chronic liver disease)” value [14] was 0 and the “Hepatotoxicity (cytolytic)” value [15] was 8. The “Hepatotoxicity (acute)” value [16] was 8.
For `COc1cc(/C=C/C(=O)O)ccc1O` [FERULATE], the “Hepatotoxicity (granulomatous hepatitis)” value [1] was 0, the “Hepatotoxicity (severe hepatitis)” value [2] was 0 and the “Hepatotoxicity (time to onset)” value [3] was 2 days - 5 years. The “Hepatotoxicity (malignant tumour)” value [4] was 0, the “Hepatotoxicity (mechanism)” value [5] was “Dose-dependant” and the “Hepatotoxicity (association with vascular disease)” value [6] was 0. The “Hepatotoxicity (cirrhosis)” value [7] was 2, the “Hepatotoxicity (benign tumour)” value [8] was 0 and the “Hepatotoxicity (choleostasis)” value [9] was 1. For the same molecule, the “Hepatotoxicity (steatosis)” value [10] was 0, the “Hepatotoxicity (moderate)” value [11] was 0% and the “Hepatotoxicity (moderate)” value [12] was 0. The “Hepatotoxicity (acute)” value [13] was 0%, the “Hepatotoxicity (chronic liver disease)” value [14] was 1 and the “Hepatotoxicity (cytolytic)” value [15] was 1. For the same molecule, the “Hepatotoxicity (acute)” value [16] was 2.
In the case of `Nc1nc(=O)[nH]cc1F` [FLUCYTOSINE], the “Hepatotoxicity (granulomatous hepatitis)” value [1] was 0, the “Hepatotoxicity (severe hepatitis)” value [2] was 2 and the “Hepatotoxicity (time to onset)” value [3] was 2 weeks - 2 months. The “Hepatotoxicity (malignant tumour)” value [4] was 0, the “Hepatotoxicity (mechanism)” value [5] was “Dose-dependant” and the “Hepatotoxicity (association with vascular disease)” value [6] was 0. The “Hepatotoxicity (cirrhosis)” value [7] was 0, the “Hepatotoxicity (benign tumour)” value [8] was 0 and the “Hepatotoxicity (choleostasis)” value [9] was 3. The “Hepatotoxicity (steatosis)” value [10] was 0, the “Hepatotoxicity (moderate)” value [11] was 55% and the “Hepatotoxicity (moderate)” value [12] was 22. For the same molecule, the “Hepatotoxicity (acute)” value [13] was 2%, the “Hepatotoxicity (chronic liver disease)” value [14] was 0 and the “Hepatotoxicity (cytolytic)” value [15] was 3. The “Hepatotoxicity (acute)” value [16] was 5.
For `CC1CCc2cc(F)cc3c(=O)c(C(=O)O)cn1c23` (stereo not drawn) [FLUMEQUINE], the “Hepatotoxicity (granulomatous hepatitis)” value [1] was 1, the “Hepatotoxicity (severe hepatitis)” value [2] was 0 and the “Hepatotoxicity (time to onset)” value [3] was 24 days. For the same molecule, the “Hepatotoxicity (malignant tumour)” value [4] was 0, the “Hepatotoxicity (mechanism)” value [5] was “Allergic” and the “Hepatotoxicity (association with vascular disease)” value [6] was 0. The “Hepatotoxicity (cirrhosis)” value [7] was 0, the “Hepatotoxicity (benign tumour)” value [8] was 0 and the “Hepatotoxicity (choleostasis)” value [9] was 0. For the same molecule, the “Hepatotoxicity (steatosis)” value [10] was 0, the “Hepatotoxicity (moderate)” value [11] was 0% and the “Hepatotoxicity (moderate)” value [12] was 0. The “Hepatotoxicity (acute)” value [13] was 0%, the “Hepatotoxicity (chronic liver disease)” value [14] was 0 and the “Hepatotoxicity (cytolytic)” value [15] was 0. The “Hepatotoxicity (acute)” value [16] was 0.
With `NCC1(CC(=O)O)CCCCC1` [GABAPENTIN] the “Hepatotoxicity (granulomatous hepatitis)” value [1] was 0, the “Hepatotoxicity (severe hepatitis)” value [2] was 0 and the “Hepatotoxicity (time to onset)” value [3] was 9 days - 4 months. The “Hepatotoxicity (malignant tumour)” value [4] was 0, the “Hepatotoxicity (mechanism)” value [5] was “Allergic” and the “Hepatotoxicity (association with vascular disease)” value [6] was 0. The “Hepatotoxicity (cirrhosis)” value [7] was 0, the “Hepatotoxicity (benign tumour)” value [8] was 0 and the “Hepatotoxicity (choleostasis)” value [9] was 3. For the same molecule, the “Hepatotoxicity (steatosis)” value [10] was 1, the “Hepatotoxicity (moderate)” value [11] was 2.4% and the “Hepatotoxicity (moderate)” value [12] was 2. For the same molecule, the “Hepatotoxicity (acute)” value [13] was 2.4%, the “Hepatotoxicity (chronic liver disease)” value [14] was 0 and the “Hepatotoxicity (cytolytic)” value [15] was 1. The “Hepatotoxicity (acute)” value [16] was 5.
In the case of `Cc1ccc(S(=O)(=O)NC(=O)NN2CC3CCCC3C2)cc1` (stereo not drawn) [GLICLAZIDE], the “Hepatotoxicity (granulomatous hepatitis)” value [1] was 0, the “Hepatotoxicity (severe hepatitis)” value [2] was 0 and the “Hepatotoxicity (time to onset)” value [3] was 4 weeks - 5 weeks. For the same molecule, the “Hepatotoxicity (malignant tumour)” value [4] was 0, the “Hepatotoxicity (mechanism)” value [5] was “Allergic” and the “Hepatotoxicity (association with vascular disease)” value [6] was 0. For the same molecule, the “Hepatotoxicity (cirrhosis)” value [7] was 0, the “Hepatotoxicity (benign tumour)” value [8] was 0 and the “Hepatotoxicity (choleostasis)” value [9] was 1. The “Hepatotoxicity (steatosis)” value [10] was 0, the “Hepatotoxicity (moderate)” value [11] was 0% and the “Hepatotoxicity (moderate)” value [12] was 1. The “Hepatotoxicity (acute)” value [13] was 0%, the “Hepatotoxicity (chronic liver disease)” value [14] was 0 and the “Hepatotoxicity (cytolytic)” value [15] was 2. For the same molecule, the “Hepatotoxicity (acute)” value [16] was 3.
